According to patent publication US20240382564A1, “Methods and Compositions for Treating Muscular Dystrophy and Memory Impairment” (Allysta Pharmaceuticals, Inc., priority 2023, published 2024):
Where no end group is shown, it is not given here. [ ]: non-standard residue; d: D form. Nva = CCC[C@H](N)C(=O)O

Legend:
Format in all cases: in vivo, mouse
D2.mdx mice [1] = experiment: Mitochondrial respiration in permeabilized muscle fibre bundles; settings: quadriceps and diaphragm; multiple substrate conditions; LD and HD
Method: (§1) D2.mdx mice were treated with ALY688 at two different dosages; high dose (HD; 15 mg/kg body weight/day) or low dose (LD; 3 mg/kg body weight/day) dissolved in saline. A separate group of mice were treated with saline alone (VEH, vehicle). Treatment was provided via subscapular subcutaneous injections from 7 days of age to 28-30 days. […] At 28-30 days of age, mice were anaesthetized with isoflurane vaporized in medical air (21% oxygen) at a 2 L/min flow rate. Due to tissue limitations in limb muscle, certain measures were performed separately in tibialis anterior and quadriceps across several phases of breeding. Following the treatment protocol, in situ quadriceps force assessments were then performed in one limb followed by removal of the quadriceps from the other limb for mitochondrial assessments, diaphragm for in vitro force assessments and finally other tissues for further processing as described below. […]
High resolution oxygen consumption (an index of mitochondrial respiration) was performed in 2 mL of MiRO5 supplemented with (creatine-dependent) or without (creatine independent) 20 mM creatine to saturate mitochondrial creatine kinase activity. O2 consumption was measured using the Oroboros Oxygraph-2K (Oroboros Instruments, Corp., Innsbruck, Austria) while stirring at 37° C. in the presence of 5 μM blebbistatin to prevent muscle fibre contraction by rigor in response to ADP. […]

D2.mdx mice [2] = experiment: Fibre-type specific minimal Feret's diameter (muscle atrophy), myosin heavy chain immunofluorescence
Method: D2.mdx mice were treated with ALY688 at two different dosages; high dose (HD; 15 mg/kg body weight/day) or low dose (LD; 3 mg/kg body weight/day) dissolved in saline. A separate group of mice were treated with saline alone (VEH, vehicle). Treatment was provided via subscapular subcutaneous injections from 7 days of age to 28-30 days. […] At 28-30 days of age, mice were anaesthetized with isoflurane vaporized in medical air (21% oxygen) at a 2 L/min flow rate. Due to tissue limitations in limb muscle, certain measures were performed separately in tibialis anterior and quadriceps across several phases of breeding. Following the treatment protocol, in situ quadriceps force assessments were then performed in one limb followed by removal of the quadriceps from the other limb for mitochondrial assessments, diaphragm for in vitro force assessments and finally other tissues for further processing as described below. Muscle and visceral organs weights were normalized to tibia length. Tissue collected from the first phase were utilized in force, histological, mitochondrial measures (respiration, mH2O2 and calcium retention capacity) and western analyses (diaphragm and quadriceps only). A second phase was then collected and utilized for cytokine profiling, qPCR analyses and additional westerns (TA only). Serum was collected from both phase 1 and 2 and utilized for serum CK analysis. All animals were utilized in in vivo functional assays (grip strength, cage hang time and voluntary wheel running).
Samples collected were cut into 8 µm thick serial cross sections with a cryostat (Thermo Fisher Scientific; Kalamazoo, MI, United States;) maintained at −20° C. on Fisherbrand Superfrost Plus slides (Thermo Fisher Scientific). Hematoxylin and eosin (H&E) and Masson's trichrome staining was used to assess muscle health and fibrosis. Centralized nuclei, a marker of regenerating fibres, was analyzed by selecting five evenly spaced images throughout the muscle and averaging the result. Areas of damage (fibres with fragmented sarcoplasm and immune cell infiltration) were expressed as a percentage of the entire muscle section. Images were taken using EVOS M7000 imager (Thermo Fisher Scientific) using 20× magnification and analyzed using ImageJ (http://imagej.nih.gov/ij/). To determine fibrotic area, skeletal muscle sections were stained with Masson's Trichrome (fibrotic regions stain blue for collagen) and expressed as a percentage of a region of interest, which included the entire muscle section with any artifacts removed. Sections were imaged Nikon 90i-eclipse microscope (Nikon Inc., Melville, NY) and analysed with the NIS Elements AR software (v4.6, Nikon). […] These images were then analyzed with ImageJ for minimal Feret's diameter as an index of muscle atrophy.

D2.mdx mice [3] = experiment: Mitochondrial calcium retention capacity; settings: between groups
Method: as §1, with “breeding.” for “breeding. Following the treatment protocol, in situ quadriceps force assessments were then performed in one limb followed by removal of the quadriceps from the other limb for mitochondrial assessments, diaphragm for in vitro force assessments and finally other tissues for further processing as described below.”
This assay was measured spectrofluorometrically (QuantaMaster 80, HORIBA Scientific) in a cuvette with 300 μL assay buffer containing 1 μM Calcium Green-5N (Invitrogen), 2 μM thapsigargin, 5 μM blebbistatin, and 40 μM EGTA while maintained at 37° C. with continuous stirring. 5 mM glutamate, 2 mM malate, 5 mM ADP and 20 mM creatine were added to the assay buffer and minimum fluorescence was recorded. 4 nmol pulses of CaCl2 were added until the mitochondrial permeability transition pore (mPTP) opening was observed as an increase in fluorescence corresponding to net mitochondrial calcium release, at which point saturating pulses of CaCl2 were used to establish maximum fluorescence. […]

D2.mdx mice [4] = experiment: Fibrosis by Masson's trichrome staining of muscle sections after ALY688 treatment
Method: as §1, with “breeding.” for “breeding. Following the treatment protocol, in situ quadriceps force assessments were then performed in one limb followed by removal of the quadriceps from the other limb for mitochondrial assessments, diaphragm for in vitro force assessments and finally other tissues for further processing as described below.”
Samples collected were cut into 8 µm thick serial cross sections with a cryostat (Thermo Fisher Scientific; Kalamazoo, MI, United States;) maintained at −20° C. on Fisherbrand Superfrost Plus slides (Thermo Fisher Scientific). […] Centralized nuclei, a marker of regenerating fibres, was analyzed by selecting five evenly spaced images throughout the muscle and averaging the result. Areas of damage (fibres with fragmented sarcoplasm and immune cell infiltration) were expressed as a percentage of the entire muscle section. Images were taken using EVOS M7000 imager (Thermo Fisher Scientific) using 20× magnification and analyzed using ImageJ (http://imagej.nih.gov/ij/). […] These images were then analyzed with ImageJ for minimal Feret's diameter as an index of muscle atrophy.

Q: [dN]IP[Nva]LY[dS]FA[dS]-NH2 [ALY688] was tested. Which ADP-stimulated respiration (D2.mdx mice [1]) did it give?
A: The ADP-stimulated respiration was “generally no effect of either dose”.

Q: What about the “atrophy in MHC I fibers (minimal feret diameter)” value (D2.mdx mice [2]; diaphragm, HD 15 mg/kg/day) of the same substance?
A: Its value is “completely prevented atrophy”.

Q: And the “minimal feret diameter, IIA fibers” value (D2.mdx mice [2]; diaphragm, HD, WT 24, VEH 20)?
A: Its value is 22 μm.

Q: And the “minimal feret diameter, IIB fibers” value (D2.mdx mice [2]; diaphragm, HD, WT 26, VEH 23)?
A: Its value is 24 μm.

Q: What about the “minimal feret diameter in any fiber type” value (D2.mdx mice [2]; tibialis anterior, between the groups) of the same substance?
A: Its value is “no differences”.

Q: What about the “mitochondrial calcium retention capacity” value (D2.mdx mice [3]) of the same substance?
A: The value was “no differences between groups”.

Q: And the “attenuation of diaphragm fibrosis (collagen content)” value (D2.mdx mice [4]; diaphragm, both doses (LD 3, HD 15 mg/kg/day s.c., 7 to 28-30 days of age))?
A: Its value is 66.7-67.6%.

Q: What about the “partial prevention of fibrosis and atrophy in tibialis anterior” value (D2.mdx mice [4]; tibialis anterior) of the same substance?
A: The value was “not observed”.
